ChEMBL document CHEMBL2346647, “Identification and characterization of small molecule inhibitors of signal transducer and activator of transcription 3 (STAT3) signaling pathway by virtual screening” (Bioorg Med Chem Lett, 2013)
The source made the active and inactive calls. The rule behind the calls is not given here.

Legend:
MDA-MB-468 [1] = test: Cytotoxicity against human MDA-MB-468 cells assessed as inhibition of cell viability at 10 uM; format: functional
[2] = target: Signal transducer and activator of transcription 3 (Homo sapiens) (UniProt P40763); test: Inhibition of IL-6-induced STAT3 pathway in human HepG2 cells at 10 uM by luciferase reporter gene assay; format: cell-based
Chain of Signal transducer and activator of transcription 3 (Homo sapiens) (P40763 whole entry): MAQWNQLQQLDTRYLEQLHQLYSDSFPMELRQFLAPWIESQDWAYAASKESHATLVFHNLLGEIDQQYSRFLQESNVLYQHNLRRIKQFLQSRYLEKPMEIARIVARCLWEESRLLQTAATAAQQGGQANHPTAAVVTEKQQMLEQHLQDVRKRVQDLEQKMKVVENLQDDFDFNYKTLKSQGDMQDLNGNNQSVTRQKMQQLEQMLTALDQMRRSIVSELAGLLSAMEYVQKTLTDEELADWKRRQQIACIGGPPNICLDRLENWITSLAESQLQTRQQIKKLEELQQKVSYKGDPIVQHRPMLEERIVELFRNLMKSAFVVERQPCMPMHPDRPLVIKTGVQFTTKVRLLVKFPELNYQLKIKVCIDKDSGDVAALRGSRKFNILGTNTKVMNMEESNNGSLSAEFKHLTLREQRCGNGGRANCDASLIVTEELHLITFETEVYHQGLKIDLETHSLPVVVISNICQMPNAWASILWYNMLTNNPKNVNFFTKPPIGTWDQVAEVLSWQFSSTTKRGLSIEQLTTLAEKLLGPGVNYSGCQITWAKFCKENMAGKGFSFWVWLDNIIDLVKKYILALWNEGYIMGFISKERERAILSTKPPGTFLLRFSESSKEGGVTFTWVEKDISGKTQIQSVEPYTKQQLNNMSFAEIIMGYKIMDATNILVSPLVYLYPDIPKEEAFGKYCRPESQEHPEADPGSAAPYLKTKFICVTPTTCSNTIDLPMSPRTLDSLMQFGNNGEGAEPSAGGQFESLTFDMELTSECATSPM

[3] = target: Signal transducer and activator of transcription 3 (Homo sapiens) (UniProt P40763); test: Inhibition of IL-6-induced STAT3 phosphorylation at Tyr705 residue in human HepG2 cells pretreated for 6 to 48 hrs prior to IL-6 stimulation by Western blot analysis; format: cell-based
HepG2 [4] = test: Effect on JAK2 protein level in human HepG2 cells pretreated at 50 uM for 48 hrs prior to IL-6 stimulation by Western blot analysis; format: functional, cell-based
HepG2 [5] = test: Effect on SRC protein level in human HepG2 cells pretreated at 50 uM for 48 hrs prior to IL-6 stimulation by Western blot analysis; format: functional, cell-based
[6] = target: Proto-oncogene tyrosine-protein kinase Src (Homo sapiens) (UniProt P12931); test: Effect on SRC in human HepG2 cells pretreated at 50 uM for 6 to 48 hrs prior to IL-6 stimulation by Western blot analysis; format: cell-based
Chain of Proto-oncogene tyrosine-protein kinase Src (Homo sapiens) (P12931 2-536 limits assumed): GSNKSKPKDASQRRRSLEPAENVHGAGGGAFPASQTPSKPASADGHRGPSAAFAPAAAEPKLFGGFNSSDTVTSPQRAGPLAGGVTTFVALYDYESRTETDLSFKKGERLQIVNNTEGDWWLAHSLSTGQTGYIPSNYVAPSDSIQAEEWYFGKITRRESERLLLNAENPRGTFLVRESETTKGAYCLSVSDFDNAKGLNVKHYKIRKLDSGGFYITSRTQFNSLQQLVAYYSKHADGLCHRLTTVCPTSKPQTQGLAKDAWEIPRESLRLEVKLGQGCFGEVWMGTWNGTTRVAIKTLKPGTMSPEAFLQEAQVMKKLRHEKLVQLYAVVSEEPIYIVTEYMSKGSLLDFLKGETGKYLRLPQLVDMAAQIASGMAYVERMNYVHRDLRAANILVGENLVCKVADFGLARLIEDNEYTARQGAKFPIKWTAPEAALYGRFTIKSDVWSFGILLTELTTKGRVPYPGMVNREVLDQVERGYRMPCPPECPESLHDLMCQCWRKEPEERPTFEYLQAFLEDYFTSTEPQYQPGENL

[7] = target: Tyrosine-protein kinase JAK2 (Homo sapiens) (UniProt O60674); test: Effect on JAK2 in human HepG2 cells pretreated at 50 uM for 48 hrs prior to IL-6 stimulation by Western blot analysis; format: cell-based
Chain of Tyrosine-protein kinase JAK2 (Homo sapiens) (O60674 whole entry): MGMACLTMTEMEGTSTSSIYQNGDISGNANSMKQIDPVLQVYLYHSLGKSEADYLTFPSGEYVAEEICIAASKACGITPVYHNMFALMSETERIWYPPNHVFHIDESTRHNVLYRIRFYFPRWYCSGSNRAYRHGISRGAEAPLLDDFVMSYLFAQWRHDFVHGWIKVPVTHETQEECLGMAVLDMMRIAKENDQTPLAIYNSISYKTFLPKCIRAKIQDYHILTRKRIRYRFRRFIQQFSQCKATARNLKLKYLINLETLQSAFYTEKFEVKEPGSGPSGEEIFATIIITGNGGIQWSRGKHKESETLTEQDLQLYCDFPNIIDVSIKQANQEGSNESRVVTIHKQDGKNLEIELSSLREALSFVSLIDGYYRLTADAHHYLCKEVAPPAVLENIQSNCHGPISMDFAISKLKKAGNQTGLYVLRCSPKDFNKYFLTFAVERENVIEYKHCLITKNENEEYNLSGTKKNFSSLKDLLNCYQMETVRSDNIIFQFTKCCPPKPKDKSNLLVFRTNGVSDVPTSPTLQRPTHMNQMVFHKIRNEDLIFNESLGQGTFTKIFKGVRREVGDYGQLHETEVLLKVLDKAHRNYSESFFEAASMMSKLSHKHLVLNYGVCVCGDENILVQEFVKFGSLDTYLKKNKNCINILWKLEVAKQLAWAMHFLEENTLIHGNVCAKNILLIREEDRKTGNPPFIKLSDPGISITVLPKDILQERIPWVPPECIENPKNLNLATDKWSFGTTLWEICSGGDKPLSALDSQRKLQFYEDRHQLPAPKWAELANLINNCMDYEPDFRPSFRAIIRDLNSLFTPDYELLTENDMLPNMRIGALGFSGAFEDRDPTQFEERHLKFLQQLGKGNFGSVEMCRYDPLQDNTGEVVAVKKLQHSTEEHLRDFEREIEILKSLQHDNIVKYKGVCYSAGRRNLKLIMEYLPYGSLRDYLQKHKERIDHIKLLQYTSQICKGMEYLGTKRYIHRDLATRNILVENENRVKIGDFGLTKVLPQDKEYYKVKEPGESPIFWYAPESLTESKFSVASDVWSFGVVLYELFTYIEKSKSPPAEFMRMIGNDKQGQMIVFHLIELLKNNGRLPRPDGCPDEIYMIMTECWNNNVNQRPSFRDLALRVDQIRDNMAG

HepG2 [8] = test: Effect on total STAT3 protein level in human HepG2 cells pretreated for 6 hrs prior to IL-6 stimulation by Western blot analysis; format: functional, cell-based
[9] = target: Signal transducer and activator of transcription 3 (Homo sapiens) (UniProt P40763); test: Inhibition of IL-6-induced STAT3 phosphorylation at Tyr705 residue in human HepG2 cells pretreated at 50 uM for 6 to 48 hrs prior to IL-6 stimulation by Western blot analysis; format: cell-based
MDA-MB-468 [10] = test: Cytotoxicity against human MDA-MB-468 cells assessed as inhibition of cell viability; format: functional, cell-based
[11] = target: T1, Signal transducer and activator of transcription 1-alpha/beta (Homo sapiens) (UniProt P42224); test: Inhibition of IFN-gamma-induced STAT1 (unknown origin) at 10 uM
T1 sequence (whole entry): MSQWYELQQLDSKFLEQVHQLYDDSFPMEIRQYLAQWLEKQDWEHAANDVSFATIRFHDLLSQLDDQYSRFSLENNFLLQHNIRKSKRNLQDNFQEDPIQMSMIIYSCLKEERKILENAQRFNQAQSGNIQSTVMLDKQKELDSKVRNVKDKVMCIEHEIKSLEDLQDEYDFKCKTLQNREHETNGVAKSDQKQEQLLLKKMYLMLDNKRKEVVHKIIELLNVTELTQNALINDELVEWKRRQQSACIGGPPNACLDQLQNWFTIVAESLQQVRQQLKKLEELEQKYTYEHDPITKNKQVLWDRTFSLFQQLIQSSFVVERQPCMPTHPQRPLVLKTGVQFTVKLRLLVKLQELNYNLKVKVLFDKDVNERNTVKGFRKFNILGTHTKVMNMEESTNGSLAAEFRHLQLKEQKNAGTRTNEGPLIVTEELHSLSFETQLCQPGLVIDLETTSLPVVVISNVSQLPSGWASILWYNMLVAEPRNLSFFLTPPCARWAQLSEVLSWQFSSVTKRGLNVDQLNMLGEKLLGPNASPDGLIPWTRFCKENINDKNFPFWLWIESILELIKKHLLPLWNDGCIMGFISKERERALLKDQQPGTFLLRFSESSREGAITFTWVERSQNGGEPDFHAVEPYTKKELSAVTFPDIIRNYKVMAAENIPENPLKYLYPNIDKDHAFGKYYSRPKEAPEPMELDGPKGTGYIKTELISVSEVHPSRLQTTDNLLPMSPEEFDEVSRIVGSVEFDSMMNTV

SMILES	inhibition [2]	inhibition at 10 µM (MDA-MB-468 [1])	other results
COc1cc(/C=C/C(=O)CC(=O)/C=C/c2ccc(O)c(OC)c2)ccc1O [CURCUMIN]	41%	3.88%	inhibition [3]: Dose-dependent effect
Oc1ccc(NCc2cc(Cl)ccc2OCc2ccc(Cl)cc2)cc1	44.9%	46.8%	Activity (HepG2 [4]): inactive; Activity (HepG2 [5]): inactive; Activity [6]: inactive; Activity [7]: inactive; Activity (HepG2 [8]): inactive; inhibition [9]: Active; IC50 (MDA-MB-468 [10]): 18.8 µM; inhibition [11]: 14.3%
CC(O)CNCc1c(OCc2ccccc2Cl)ccc2ccccc12 (stereo not drawn)	–	14.9%	–
Cc1cccc(NCc2cc(Br)ccc2OCc2ccc(Cl)cc2)c1C	34.5%	-2.03%	–
Fc1ccc(COc2ccc(Cl)cc2CNCC2CCNCC2)cc1	–	38.8%	–
C#CCOc1ccc(Cl)cc1CNc1ccccc1Cl	–	15.5%	–
O=C(O)c1ccc(CNCc2ccccc2OCc2ccccc2)cc1	-8.72%	-10.8%	–
NS(=O)(=O)c1ccc(NCc2cc(Cl)ccc2OCc2ccccc2)cc1	42.1%	27.7%	Activity (HepG2 [4]): inactive; Activity (HepG2 [5]): inactive; Activity [6]: inactive; Activity [7]: inactive; Activity (HepG2 [8]): inactive; inhibition [9]: Active; IC50 (MDA-MB-468 [10]): 28.3 µM
Clc1ccc(COc2ccccc2CNCc2ccccn2)cc1	15.6%	18.9%	–
COCCNCc1ccc(OCc2cc(Cl)cc(Cl)c2)cc1	20.2%	16.4%	–
Clc1ccc(OCc2ccccc2Cl)c(CNCc2ccccc2)c1	36.6%	10.7%	–

Further lines, with some results ahead:

inhibition [2]	SMILES	inhibition at 10 µM (MDA-MB-468 [1])	other results
-6.39%	COc1ccc(Cl)cc1CNCc1ccc2c(c1)OCO2	-4.03%	–
3.63%	NC(=O)COc1ccc(Cl)cc1CNCCN1CCOCC1	-2.61%	–
14.3%	NC(=O)COc1ccc(Cl)cc1CNCCc1ccccc1	-8.1%	–
1.69%	NC(=O)COc1ccc(Cl)cc1CNCc1ccc(F)cc1	54.8%	–
33.2%	OCCNCc1cc(Br)ccc1OCc1ccc(Cl)cc1	26.6%	IC50 (MDA-MB-468 [10]): 23 µM
27.8%	Fc1ccc(COc2ccc(Cl)cc2CNCC2CCCO2)cc1 (stereo not drawn)	27.5%	–
